Literature values as cited in patent publication US8283517B2, “Transgenic mouse models of Aβ overexpression” (Probiodrug AG, priority 2007, dated 2012).

Tests used:
QC = QC catalyzed conversion of Glu-βNA, pH-dependence data
[1] = not given; remark: listed apart in the source

N[C@@H](CCC(=O)O)C(=O)Nc1ccc2ccccc2c1 [Glu-βNA]
pKa-value of the α-amino group, determined by titration: 7.57±0.05
kinetically determined pKa-value (QC): 7.55+/−0.02

N[C@@H](CCC(=O)O)C(=O)O [Glutamate]
pKa-value for the α-amino moiety [1]: ~7.5
pKa-value for the γ-carboxylic moiety ([1]; printed as 7-carboxylic): about 4.2
